Columns and labels:
[1] = biological target: Phospholipase A2 group IB, pancreatic (Homo sapiens) (UniProt P04054); test: Inhibitory activity against human pancreatic Phospholipase A2
[2] = biological target: Phospholipase A2, pancreatic group IB (Sus scrofa); test: Inhibitory activity against porcine pancreatic Phospholipase A2

Phospholipase A2 group IB, pancreatic (Homo sapiens), sequence (P04054 whole entry, looked up): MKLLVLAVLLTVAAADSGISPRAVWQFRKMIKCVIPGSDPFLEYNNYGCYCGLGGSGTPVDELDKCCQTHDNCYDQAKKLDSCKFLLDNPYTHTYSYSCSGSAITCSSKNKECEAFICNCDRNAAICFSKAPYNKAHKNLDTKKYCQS

| Structure (SMILES) | IC50 [1] [µM] | IC50 [2] [µM] |
| --- | --- | --- |
| NC(=O)Cc1c(Br)n(Cc2ccccc2)c2ccc(OCCCP(=O)(O)O)cc12 [[3-(1-Benzyl-2-bromo-3-carbamoylmethyl-1H-indol-5-yloxy)-propyl]-phosphonic acid] | 6.2 | 2.2 |
| Cc1c(CC(N)=O)c2c(OCC(=O)O)cccc2n1Cc1ccccc1-c1ccccc1 [Sodium; (1-biphenyl-2-ylmethyl-3-carbamoylmethyl-2-methyl-1H-indol-4-yloxy)-acetate] | 4.09 | 0.014 |
| Cc1c(CC(N)=O)c2c(OCC(=O)O)cccc2n1Cc1cccc(Cl)c1 [Sodium; [3-carbamoylmethyl-1-(3-chloro-benzyl)-2-methyl-1H-indol-4-yloxy]-acetate] | 1.2 | 0.02 |

Continued, in another order:

| IC50 [1] [µM] | Structure (SMILES) | IC50 [2] [µM] |
| --- | --- | --- |
| 15.9 | NC(=O)Cc1c(Br)n(Cc2ccccc2)c2ccc(OCCCC(=O)O)cc12 [4-(1-Benzyl-2-bromo-3-carbamoylmethyl-1H-indol-5-yloxy)-butyric acid] |  |
| 22.5 | Cc1c(CC(N)=O)c2cc(OCc3ccccc3C(=O)O)ccc2n1Cc1ccccc1 [2-(1-Benzyl-3-carbamoylmethyl-2-methyl-1H-indol-5-yloxymethyl)-benzoic acid] | 7.5 |
